Source: patent US8074906B2, “Process for milling and preparing powders and compositions produced thereby” (Nanotherapeutics, Inc., priority 2005, dated 2011)

How the values were obtained:
[1] = particle size by Coulter DELSA 440; format: physicochemical
Excerpt: Oxcarbazepine, an antiepileptic drug marketed as Trileptal® by Novartis, is a white crystalline powder practically insoluble in water. Oxcarbazepine (100%) was milled in 1 kg batches according to the method described in EXAMPLE 1.
[…]

[2] = in vivo pharmacokinetics of taurine formulations in rats; settings: rat, oral, read-out: bioavailability (BA)
[3] = moisture uptake (weight change) at room temperature and humidity; format: physicochemical; settings: lyophilized simple salt, 24 hours
Method: Initial Zn-DTPA simple salt solutions were prepared and lyophilized, producing a hygroscopic mixture not stable at room temperature and humidity (>10% moisture uptake in 24 hours). Zn-DTPA (trisodium zinc diethylenetriaminepentaacetate) were then mixed with (1) hydroxyl-propyl-methylcellulose (HPMC, K100M, Dow), (2) lactose (USP, Hawkins), and (3) silica dioxide (Sipernat 50S, Degussa) and dried using lyophilization. Preparation procedures include (A) mixing ingredients (75 and 90% Zn-DTPA, 1 g total each) into 10 ml DI water and adjusting pH with NaOH, (B) freezing at −20 C, (C) lyophilizing overnight (shelves at room temp), and (D) measuring the moisture uptake (weight change) at room temperature (20-25° C.) and humidity (40-55%) at 1 month.

In the case of `NC(=O)N1c2ccccc2CC(=O)c2ccccc21` [Oxcarbazepine], the particle size ([1]; Pass 1) is reported as 2250 nm, the particle size ([1]; Pass 2) is reported as 524 nm and the particle size ([1]; Pass 3) is reported as 400 nm. For the same compound, the particle size ([1]; Pass 4) was 264 nm.
In the case of `NCCS(=O)(=O)O` [unformulated taurine, Taurine], the bioavailability [2] is reported as 18%.
Work on `O=C([O-])CN(CCN(CC(=O)[O-])CC(=O)[O-])CCN(CC(=O)[O-])CC(=O)[O-].[Na+].[Na+].[Na+].[Zn+2]` [Zn-DTPA, trisodium zinc diethylenetriaminepentaacetate] yielded a moisture uptake [3] of over 10%.
